We go through 1 compound from ChEMBL document CHEMBL4330132, “5-Keto-3-cyano-2,4-diaminothiophenes as selective maternal embryonic leucine zipper kinase inhibitors” (Bioorg Med Chem Lett, 2019).

Molecules are shown by their SMILES.

In test [1] the test system is Tyrosine-protein kinase ABL1 (Homo sapiens), P00519 [E255K]. The experiment in a line: Binding affinity to human phosphorylated ABL1 E255K mutant (S229 to K512 residues) expressed in mammalian expression system assessed as residual binding level at 1 uM by Kinomescan method relative to control.
Chain of Tyrosine-protein kinase ABL1 (Homo sapiens), P00519 [E255K] (P00519 whole entry E255K, the tested form may be a part): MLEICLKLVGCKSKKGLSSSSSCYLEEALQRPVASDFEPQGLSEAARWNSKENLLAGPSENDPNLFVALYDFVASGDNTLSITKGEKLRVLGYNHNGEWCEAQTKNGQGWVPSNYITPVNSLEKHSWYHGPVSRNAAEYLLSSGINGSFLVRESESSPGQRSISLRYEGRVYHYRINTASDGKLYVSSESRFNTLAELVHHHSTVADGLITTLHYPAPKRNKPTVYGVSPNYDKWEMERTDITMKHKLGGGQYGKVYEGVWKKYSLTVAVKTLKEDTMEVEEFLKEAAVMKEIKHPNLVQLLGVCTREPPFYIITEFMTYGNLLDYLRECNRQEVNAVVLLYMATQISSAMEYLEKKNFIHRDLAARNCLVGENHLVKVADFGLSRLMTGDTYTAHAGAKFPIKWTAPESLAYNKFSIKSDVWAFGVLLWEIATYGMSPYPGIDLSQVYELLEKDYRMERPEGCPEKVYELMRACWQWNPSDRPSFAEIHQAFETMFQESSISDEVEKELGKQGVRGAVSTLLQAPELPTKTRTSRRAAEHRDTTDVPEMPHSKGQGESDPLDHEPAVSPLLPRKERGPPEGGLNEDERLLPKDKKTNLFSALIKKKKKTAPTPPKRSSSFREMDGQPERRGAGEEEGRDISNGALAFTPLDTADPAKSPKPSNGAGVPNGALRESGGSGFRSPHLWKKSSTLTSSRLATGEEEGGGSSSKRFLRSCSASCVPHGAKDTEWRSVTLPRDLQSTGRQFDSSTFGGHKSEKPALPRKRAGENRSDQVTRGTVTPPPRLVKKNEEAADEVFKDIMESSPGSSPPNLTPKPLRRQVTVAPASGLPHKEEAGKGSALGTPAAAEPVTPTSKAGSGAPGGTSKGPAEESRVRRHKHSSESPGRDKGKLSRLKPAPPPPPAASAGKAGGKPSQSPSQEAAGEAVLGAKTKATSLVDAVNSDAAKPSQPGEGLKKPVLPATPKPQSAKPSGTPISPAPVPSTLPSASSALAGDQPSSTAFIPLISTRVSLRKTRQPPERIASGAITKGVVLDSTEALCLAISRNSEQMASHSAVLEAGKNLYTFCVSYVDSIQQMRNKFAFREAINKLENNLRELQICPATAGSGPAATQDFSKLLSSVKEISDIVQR
The target in test [2] is Ankyrin repeat and protein kinase domain-containing protein 1 (Homo sapiens) (UniProt Q8NFD2). The experiment in a line: Binding affinity to wild-type human partial length ANKK1 (M1 to A305 residues) expressed in mammalian expression system assessed as residual binding level at 1 uM by Kinomescan method relative to control.
Test [3] addresses Calcium/calmodulin-dependent protein kinase type 1G (Homo sapiens) (UniProt Q96NX5). As to the kind of experiment: Binding affinity to wild-type human partial length CAMK1G (M1 to A342 residues) expressed in bacterial expression system assessed as residual binding level at 1 uM by Kinomescan method relative to control.
Test [4] addresses Cyclin-dependent kinase 2 (Homo sapiens) (UniProt P24941). The experiment in a line: Binding affinity to wild-type human full length CDK2 (M1 to L298 residues) expressed in bacterial expression system assessed as residual binding level at 1 uM by Kinomescan method relative to control.
In test [5] the target is Dual specificity protein kinase CLK3 (Homo sapiens) (UniProt P49761). The experiment in a line: Binding affinity to wild-type human full length CLK3 (M1 to R490 residues) expressed in bacterial expression system assessed as residual binding level at 1 uM by Kinomescan method relative to control.
Chain of Dual specificity protein kinase CLK3 (Homo sapiens) (P49761 whole entry, looked up, the tested form may be a part): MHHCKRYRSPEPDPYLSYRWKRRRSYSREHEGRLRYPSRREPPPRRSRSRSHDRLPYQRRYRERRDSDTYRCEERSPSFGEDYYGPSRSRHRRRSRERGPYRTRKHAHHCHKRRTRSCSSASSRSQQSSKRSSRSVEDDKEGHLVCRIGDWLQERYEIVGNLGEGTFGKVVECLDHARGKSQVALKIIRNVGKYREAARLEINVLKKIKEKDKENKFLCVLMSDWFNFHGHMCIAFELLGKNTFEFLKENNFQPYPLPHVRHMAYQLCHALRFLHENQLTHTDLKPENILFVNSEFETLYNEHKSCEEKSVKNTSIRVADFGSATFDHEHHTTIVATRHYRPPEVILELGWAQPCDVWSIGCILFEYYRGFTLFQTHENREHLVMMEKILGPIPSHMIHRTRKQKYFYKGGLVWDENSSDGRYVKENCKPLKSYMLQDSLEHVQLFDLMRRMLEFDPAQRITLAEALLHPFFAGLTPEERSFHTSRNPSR
The target of test [6] is Megakaryocyte-associated tyrosine-protein kinase (Homo sapiens) (UniProt P42679). The experiment in a line: Binding affinity to wild-type human full length CTK (M43 to P508 residues) expressed in mammalian expression system assessed as residual binding level at 1 uM by Kinomescan method relative to control.
Chain of Megakaryocyte-associated tyrosine-protein kinase (Homo sapiens) (P42679 whole entry, the tested form may be a part): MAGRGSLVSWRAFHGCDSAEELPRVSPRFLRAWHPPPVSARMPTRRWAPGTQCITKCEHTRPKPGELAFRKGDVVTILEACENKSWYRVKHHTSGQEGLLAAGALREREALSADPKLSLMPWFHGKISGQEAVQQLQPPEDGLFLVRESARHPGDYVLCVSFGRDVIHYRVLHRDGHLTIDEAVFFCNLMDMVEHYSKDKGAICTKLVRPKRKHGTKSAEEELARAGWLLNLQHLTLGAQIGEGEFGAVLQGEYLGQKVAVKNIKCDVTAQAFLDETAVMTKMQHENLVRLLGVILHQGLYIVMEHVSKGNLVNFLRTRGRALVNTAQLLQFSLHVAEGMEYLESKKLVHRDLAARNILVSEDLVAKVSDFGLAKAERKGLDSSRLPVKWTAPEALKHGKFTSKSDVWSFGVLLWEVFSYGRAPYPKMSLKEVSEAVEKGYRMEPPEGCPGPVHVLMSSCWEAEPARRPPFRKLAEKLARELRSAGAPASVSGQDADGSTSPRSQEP
The subject of test [7] is Epidermal growth factor receptor (Homo sapiens), P00533 [L858R,T790M]. The experiment in a line: Binding affinity to human partial length EGFR L858R/T790M double mutant (R669 to V1011 residues) expressed in mammalian expression system assessed as residual binding level at 1 uM by Kinomescan method relative to control.
For test [8], the target named is Eukaryotic translation initiation factor 2-alpha kinase 1 (Homo sapiens) (UniProt Q9BQI3). The experiment in a line: Binding affinity to wild-type human partial length EIF2AK1 (Q147 to E603 residues) expressed in mammalian expression system assessed as residual binding level at 1 uM by Kinomescan method relative to control.
Test [9] deals with Tyrosine-protein kinase Lyn (Homo sapiens) (UniProt P07948). As to the kind of experiment: Binding affinity to wild-type human partial length LYN (C219 to Q511 residues) expressed in bacterial expression system assessed as residual binding level at 1 uM by Kinomescan method relative to control.
Test [10] addresses Mitogen-activated protein kinase kinase kinase 13 (Homo sapiens) (UniProt O43283). The experiment in a line: Binding affinity to wild-type human full length LZK (M1 to W966 residues) expressed in mammalian expression system assessed as residual binding level at 1 uM by Kinomescan method relative to control.
The target of test [11] is Mitogen-activated protein kinase kinase kinase 1 (Homo sapiens) (UniProt Q13233). The experiment in a line: Binding affinity to wild-type human partial length MAP3K1 (L1202 to W1512 residues) expressed in mammalian expression system assessed as residual binding level at 1 uM by Kinomescan method relative to control.
In test [12] the target is Serine/threonine-protein kinase 4 (Homo sapiens) (UniProt Q13043). The experiment in a line: Binding affinity to wild-type human full length MST1 (M1 to F487 residues) expressed in bacterial expression system assessed as residual binding level at 1 uM by Kinomescan method relative to control.
Chain of Serine/threonine-protein kinase 4 (Homo sapiens) (Q13043 whole entry, the tested form may be a part): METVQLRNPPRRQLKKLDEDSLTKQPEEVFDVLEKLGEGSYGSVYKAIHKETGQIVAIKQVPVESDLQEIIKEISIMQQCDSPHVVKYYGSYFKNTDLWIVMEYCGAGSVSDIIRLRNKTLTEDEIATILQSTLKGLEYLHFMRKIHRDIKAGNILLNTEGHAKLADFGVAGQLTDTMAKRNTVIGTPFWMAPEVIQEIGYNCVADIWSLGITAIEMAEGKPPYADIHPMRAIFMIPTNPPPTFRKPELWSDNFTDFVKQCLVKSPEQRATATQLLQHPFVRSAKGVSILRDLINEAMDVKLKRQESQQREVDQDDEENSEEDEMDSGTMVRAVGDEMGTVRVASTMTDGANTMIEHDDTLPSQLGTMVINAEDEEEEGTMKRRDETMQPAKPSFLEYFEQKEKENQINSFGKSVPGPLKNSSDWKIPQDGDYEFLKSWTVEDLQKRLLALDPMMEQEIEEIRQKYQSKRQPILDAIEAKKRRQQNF
The target in test [13] is Myosin light chain kinase, smooth muscle (Homo sapiens) (UniProt Q15746). As to the kind of experiment: Binding affinity to wild-type human full length MYLK (M854 to E1845 residues) expressed in mammalian expression system assessed as residual binding level at 1 uM by Kinomescan method relative to control.
Test [14] addresses Myosin-IIIa (Homo sapiens) (UniProt Q8NEV4). As to the kind of experiment: Binding affinity to wild-type human partial length MYO3A (M1 to K338 residues) expressed in bacterial expression system assessed as residual binding level at 1 uM by Kinomescan method relative to control.
Test [15] deals with Cyclin-dependent kinase 17 (Homo sapiens) (UniProt Q00537). The experiment in a line: Binding affinity to wild-type human full length PCTK2 (M1 to F523 residues) expressed in bacterial expression system assessed as residual binding level at 1 uM by Kinomescan method relative to control.
Test [16] has as its target Serine/threonine-protein kinase D1 (Homo sapiens) (UniProt Q15139). As to the kind of experiment: Binding affinity to wild-type human partial length PRKD1 (G551 to E870 residues) expressed in bacterial expression system assessed as residual binding level at 1 uM by Kinomescan method relative to control.
For test [17], the target named is cAMP-dependent protein kinase catalytic subunit PRKX (Homo sapiens) (UniProt P51817). As to the kind of experiment: Binding affinity to wild-type human partial length PRKX (M1 to F358 residues) expressed in bacterial expression system assessed as residual binding level at 1 uM by Kinomescan method relative to control.
For test [18], the target named is RAF proto-oncogene serine/threonine-protein kinase (Homo sapiens) (UniProt P04049). As to the kind of experiment: Binding affinity to wild-type human partial length RAF1 (I330 to T640 residues) expressed in bacterial expression system assessed as residual binding level at 1 uM by Kinomescan method relative to control.
Chain of RAF proto-oncogene serine/threonine-protein kinase (Homo sapiens) (P04049 whole entry, the tested form may be a part): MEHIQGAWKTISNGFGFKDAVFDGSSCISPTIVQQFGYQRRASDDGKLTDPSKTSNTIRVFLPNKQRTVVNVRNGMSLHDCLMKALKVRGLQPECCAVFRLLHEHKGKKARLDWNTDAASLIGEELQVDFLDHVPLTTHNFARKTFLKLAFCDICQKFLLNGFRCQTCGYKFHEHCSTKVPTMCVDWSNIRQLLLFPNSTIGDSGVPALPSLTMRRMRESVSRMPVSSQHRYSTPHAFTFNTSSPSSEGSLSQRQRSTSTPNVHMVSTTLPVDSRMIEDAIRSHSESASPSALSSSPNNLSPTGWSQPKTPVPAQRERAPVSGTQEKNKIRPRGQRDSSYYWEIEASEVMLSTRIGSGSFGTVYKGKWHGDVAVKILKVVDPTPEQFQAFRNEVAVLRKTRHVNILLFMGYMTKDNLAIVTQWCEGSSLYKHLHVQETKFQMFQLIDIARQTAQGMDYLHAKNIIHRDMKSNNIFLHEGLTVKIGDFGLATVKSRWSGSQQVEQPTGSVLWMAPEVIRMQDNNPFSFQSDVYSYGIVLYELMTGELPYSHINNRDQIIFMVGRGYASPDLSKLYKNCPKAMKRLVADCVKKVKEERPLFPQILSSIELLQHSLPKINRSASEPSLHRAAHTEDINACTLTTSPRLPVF
Test [19] has as its system Proto-oncogene tyrosine-protein kinase receptor Ret (Homo sapiens), P07949 [V804M]. The experiment in a line: Binding affinity to human partial length RET V804M mutant (E713 to D1014 residues) expressed in bacterial expression system assessed as residual binding level at 1 uM by Kinomescan method relative to control.
The target of test [20] is Ribosomal protein S6 kinase alpha-1 (Homo sapiens) (UniProt Q15418). As to the kind of experiment: Binding affinity to wild-type human partial length C-terminal RSK1 kinase domain 2 (P360 to L681 residues) expressed in bacterial expression system assessed as residual binding level at 1 uM by Kinomescan method relative to control.
Chain of Ribosomal protein S6 kinase alpha-1 (Homo sapiens) (Q15418 whole entry, the tested form may be a part): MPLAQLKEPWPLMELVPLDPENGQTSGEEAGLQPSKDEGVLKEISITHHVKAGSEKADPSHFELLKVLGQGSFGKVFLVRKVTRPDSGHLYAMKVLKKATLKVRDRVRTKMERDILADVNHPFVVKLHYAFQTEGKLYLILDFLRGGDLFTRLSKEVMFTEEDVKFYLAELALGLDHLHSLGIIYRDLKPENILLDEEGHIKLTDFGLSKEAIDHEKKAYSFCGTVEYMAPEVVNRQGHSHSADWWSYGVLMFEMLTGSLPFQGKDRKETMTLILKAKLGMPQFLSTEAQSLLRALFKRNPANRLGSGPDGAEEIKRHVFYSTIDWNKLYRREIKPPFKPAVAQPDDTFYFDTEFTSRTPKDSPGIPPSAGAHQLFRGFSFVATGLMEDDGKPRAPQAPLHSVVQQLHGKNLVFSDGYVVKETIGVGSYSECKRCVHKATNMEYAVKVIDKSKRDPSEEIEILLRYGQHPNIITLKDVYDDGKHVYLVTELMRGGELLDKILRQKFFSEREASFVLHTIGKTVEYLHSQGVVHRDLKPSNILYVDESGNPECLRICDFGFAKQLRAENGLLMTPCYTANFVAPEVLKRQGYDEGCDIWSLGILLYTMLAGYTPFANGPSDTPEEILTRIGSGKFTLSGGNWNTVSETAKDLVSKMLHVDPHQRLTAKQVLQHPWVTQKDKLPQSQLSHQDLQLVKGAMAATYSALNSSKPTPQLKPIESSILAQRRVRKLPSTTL
For test [21], the target named is Ribosomal protein S6 kinase alpha-2 (Homo sapiens) (UniProt Q15349). As to the kind of experiment: Binding affinity to wild-type human partial length C-terminal RSK3 kinase domain 2 (V403 to K700 residues) expressed in bacterial expression system assessed as residual binding level at 1 uM by Kinomescan method relative to control.
For test [22], the target named is Transient receptor potential cation channel subfamily M member 6 (Homo sapiens) (UniProt Q9BX84). As to the kind of experiment: Binding affinity to wild-type human partial length TRPM6 (Q1723 to I1998 residues) expressed in mammalian expression system assessed as residual binding level at 1 uM by Kinomescan method relative to control.
The target of test [23] is Non-receptor tyrosine-protein kinase TYK2 (Homo sapiens) (UniProt P29597). As to the kind of experiment: Binding affinity to wild-type human partial length TYK2 JH2 pseudokinase domain (G556 to D888 residues) expressed in mammalian expression system assessed as residual binding level at 1 uM by Kinomescan method relative to control.
The target of test [24] is Tyrosine-protein kinase ZAP-70 (Homo sapiens) (UniProt P43403). The experiment in a line: Binding affinity to wild-type human partial length ZAP70 (D20 to G299 residues) expressed in mammalian expression system assessed as residual binding level at 1 uM by Kinomescan method relative to control.

Chain of Serine/threonine-protein kinase D1 (Homo sapiens) (Q15139 whole entry, the tested form may be a part): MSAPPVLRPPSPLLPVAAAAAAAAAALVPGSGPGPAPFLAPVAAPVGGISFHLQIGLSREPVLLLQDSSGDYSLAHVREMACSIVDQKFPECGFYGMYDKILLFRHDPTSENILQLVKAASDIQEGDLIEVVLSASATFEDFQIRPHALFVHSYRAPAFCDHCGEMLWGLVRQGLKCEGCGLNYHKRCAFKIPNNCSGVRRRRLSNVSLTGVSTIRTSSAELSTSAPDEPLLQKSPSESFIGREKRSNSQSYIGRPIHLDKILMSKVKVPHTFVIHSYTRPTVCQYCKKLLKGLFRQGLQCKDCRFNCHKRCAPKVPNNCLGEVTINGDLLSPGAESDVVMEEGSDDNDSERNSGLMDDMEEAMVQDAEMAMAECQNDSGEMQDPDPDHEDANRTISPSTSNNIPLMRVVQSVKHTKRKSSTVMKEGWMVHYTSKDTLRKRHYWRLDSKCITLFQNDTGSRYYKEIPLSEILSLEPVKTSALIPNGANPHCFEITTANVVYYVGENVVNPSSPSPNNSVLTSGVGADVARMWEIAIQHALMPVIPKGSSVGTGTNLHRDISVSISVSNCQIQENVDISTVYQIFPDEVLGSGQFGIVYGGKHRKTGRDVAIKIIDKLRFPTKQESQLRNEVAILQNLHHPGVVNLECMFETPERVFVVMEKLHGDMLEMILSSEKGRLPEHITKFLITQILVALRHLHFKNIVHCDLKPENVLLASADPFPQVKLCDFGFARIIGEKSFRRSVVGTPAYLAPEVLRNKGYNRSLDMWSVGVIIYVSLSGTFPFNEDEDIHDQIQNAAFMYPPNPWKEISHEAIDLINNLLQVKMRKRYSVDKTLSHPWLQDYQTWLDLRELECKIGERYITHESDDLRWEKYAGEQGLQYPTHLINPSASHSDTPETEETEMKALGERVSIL

With `CC(C)Nc1sc(C(=O)c2ccc(Cl)s2)c(N)c1C#N`, the Activity is 100% in [1]; 68% in test [2]; 68% in [3]; 66% in test [4]; 74% in [5]; 100% in [6]. Moreover, the Activity was found to be 83% in test [7]; 100% in test [8]; 80% in [9]; 92% in test [10]; 100% in [11]; 100% in test [12]. Besides, the Activity in test [13] came to 71%; in [14], 75%; in test [15] it was 87%; in [16], 97%; in test [17], 79%; in test [18], 71%. The Activity worked out at 94% in test [19]; 85% in test [20]; 98% in test [21]; 92% in test [22]; 100% in [23]; 100% in test [24].
